The record followed here is patent US11597721B2, “Heterocyclic compounds comprising pyridine useful as modulators of IL-12, IL-23 and/or IFNα responses” (BRISTOL-MYERS SQUIBB COMPANY, priority 2018, dated 2023).

The first test has as its system IFNα-Induced STAT Phosphorylation. The test is described as follows: IFNα-Induced STAT Phosphorylation in Human Whole Blood. The following applies: 1 h compound incubation, 1000 U/mL recombinant human IFNα A/D for 15 min, pSTAT5 in CD3 positive population, read-out: LE Human WB IFNα-Induced Stat Phosph. (IC50). It is filed as cell-based. The source says: IFNα-Induced STAT Phosphorylation in Human Whole Blood
The amount of pSTAT5 expression was quantitated by median fluorescence intensity after gating on the CD3 positive population.
On to `[2H]C([2H])([2H])NC(=O)c1nnc(Nc2ccccn2)cc1Nc1nccc(-c2ncn(C)n2)c1OC` [Example 2, 4-{[3-methoxy-4-(1-methyl-1H-1,2,4-triazol-3-yl)pyridin-2-yl]amino}-N—(^2H3)methyl-6-[(pyridin-2-yl)amino]pyridazine-3-carboxamide], for which the IC50 (in general, the concentration needed to halve the response being measured) came out at 0.05 µM.

Turning to `[2H]C([2H])([2H])NC(=O)c1nnc(Nc2ccccn2)cc1Nc1nccc(-c2ncn(C)n2)c1OC` [Example 28], the IC50 was determined as 0.27 µM.

Staying with this test, now noted: Homo sapiens, 1 h compound incubation, 1000 U/mL recombinant human IFNα A/D for 15 min, pSTAT5 in CD3 positive population, read-out: LE Human WB IFNα-Induced Stat Phosph. (IC50).
Turning to `[2H]C([2H])([2H])NC(=O)c1nnc(Nc2cc(C#N)ccn2)cc1Nc1nccc(-c2ncn(C)n2)c1OC` [Example 13, 6-[(4-cyanopyridin-2-yl)amino]-4-{[3-methoxy-4-(1-methyl-1H-1,2,4-triazol-3-yl)pyridin-2-yl]amino}-N—(^2H3)methylpyridazine-3-carboxamide], the IC50 was greater than 10 µM.

Regarding `[2H]C([2H])([2H])NC(=O)c1nnc(Nc2cc(C)c(F)cn2)cc1Nc1nccc(-c2ncn(C)n2)c1OC` [Example 16, 6-[(5-fluoro-4-methylpyridin-2-yl)amino]-4-{[3-methoxy-4-(1-methyl-1H-1,2,4-triazol-3-yl)pyridin-2-yl]amino}-N—(^2H3)methylpyridazine-3-carboxamide], the IC50 came out at 0.12 µM.

In the case of `[2H]C([2H])([2H])NC(=O)c1nnc(Nc2cc(CC)ccn2)cc1Nc1nccc(-c2ncn(C)n2)c1OC` [Example 17, 6-[(4-ethylpyridin-2-yl)amino]-4-{[3-methoxy-4-(1-methyl-1H-1,2,4-triazol-3-yl)pyridin-2-yl]amino}-N—(^2H3)methylpyridazine-3-carboxamide], the 50% inhibitory concentration (IC50) worked out at 0.05 µM.

Consider `[2H]C([2H])([2H])NC(=O)c1nnc(Nc2cc(F)ccn2)cc1Nc1nccc(-c2ncn(C)n2)c1OC` [Example 19, 6-[(4-fluoropyridin-2-yl)amino]-4-{[3-methoxy-4-(1-methyl-1H-1,2,4-triazol-3-yl)pyridin-2-yl]amino}-N—(^2H3)methylpyridazine-3-carboxamide], for which the IC50 turned out to be 0.03 µM.

With `[2H]C([2H])([2H])NC(=O)c1nnc(Nc2nnc(C)s2)cc1Nc1nccc(-c2ncn(C)n2)c1OC` [Example 20, 4-{[3-methoxy-4-(1-methyl-1H-1,2,4-triazol-3-yl)pyridin-2-yl]amino}-N—(^2H3)methyl-6-[(5-methyl-1,3,4-thiadiazol-2-yl)amino]pyridazine-3-carboxamide], the IC50 is 1.51 µM.

`[2H]C([2H])([2H])NC(=O)c1nnc(Nc2cc(Cl)ccn2)cc1Nc1nccc(-c2ncn(C)n2)c1OC` [Example 21, 6-[(4-chloropyridin-2-yl)amino]-4-{[3-methoxy-4-(1-methyl-1H-1,2,4-triazol-3-yl)pyridin-2-yl]amino}-N—(^2H3)methylpyridazine-3-carboxamide]: the IC50 is 0.03 µM.

Regarding `[2H]C([2H])([2H])NC(=O)c1nnc(Nc2ccc(-n3ccccc3=O)cn2)cc1Nc1nccc(-c2ncn(C)n2)c1OC` [Example 24, 4-{[3-methoxy-4-(1-methyl-1H-1,2,4-triazol-3-yl)pyridin-2-yl]amino}-N—(^2H3)methyl-6-({2-oxo-2H-[1,3′-bipyridine]-6′-yl}amino)pyridazine-3-carboxamide], the 50% inhibitory concentration (IC50) was 0.03 µM.

Take `[2H]C([2H])([2H])NC(=O)c1nnc(Nc2cc(C(C)(C)O)ccn2)cc1Nc1nccc(-c2ncn(C)n2)c1OC` [Example 25, 6-{[4-(2-hydroxypropan-2-yl)pyridin-2-yl]amino}-4-{[3-methoxy-4-(1-methyl-1H-1,2,4-triazol-3-yl)pyridin-2-yl]amino}-N—(^2H3)methylpyridazine-3-carboxamide]: the IC50 was determined as 0.05 µM.

Consider `[2H]C([2H])([2H])NC(=O)c1nnc(Nc2ccc(-n3cccc(C(F)(F)F)c3=O)cn2)cc1Nc1nccc(-c2ncn(C)n2)c1OC` [Example 26, 4-{[3-methoxy-4-(1-methyl-1H-1,2,4-triazol-3-yl)pyridin-2-yl]amino}-N—(^2H3)methyl-6-{[2-oxo-3-(trifluoromethyl)-2H-[1,3′-bipyridine]-6-yl]amino}pyridazine-3-carboxamide], for which the IC50 was determined as 0.03 µM.

For the compound `[2H]C([2H])([2H])NC(=O)c1nnc(Nc2cc(C(F)(F)F)ccn2)cc1Nc1nccc(-c2ncn(C)n2)c1OC` [Example 32, 4-{[3-methoxy-4-(1-methyl-1H-1,2,4-triazol-3-yl)pyridin-2-yl]amino}-N—(^2H3)methyl-6-{[4-(trifluoromethyl)pyridin-2-yl]amino}pyridazine-3-carboxamide], the IC50 came out at 0.09 µM.

For the compound `[2H]C([2H])([2H])NC(=O)c1nnc(Nc2ccc(C(C)(C)O)cn2)cc1Nc1nccc(-c2ncn(C)n2)c1OC` [Example 33, 6-{[5-(2-hydroxypropan-2-yl)pyridin-2-yl]amino}-4-{[3-methoxy-4-(1-methyl-1H-1,2,4-triazol-3-yl)pyridin-2-yl]amino}-N—(^2H3)methylpyridazine-3-carboxamide], the IC50 was 0.02 µM.

`[2H]C([2H])([2H])NC(=O)c1nnc(Nc2ccncc2)cc1Nc1nccc(-c2ncn(C)n2)c1OC` [Example 35, 4-{[3-methoxy-4-(1-methyl-1H-1,2,4-triazol-3-yl)pyridin-2-yl]amino}-N—(^2H3)methyl-6-[(pyridin-4-yl)amino]pyridazine-3-carboxamide]: the IC50 worked out at 0.2 µM.

As for `[2H]C([2H])([2H])NC(=O)c1nnc(Nc2ccc(OCC)nn2)cc1Nc1nccc(-c2ncn(C)n2)c1OC` [Example 36, 6-[(6-ethoxypyridazin-3-yl)amino]-4-{[3-methoxy-4-(1-methyl-1H-1,2,4-triazol-3-yl)pyridin-2-yl]amino}-N—(^2H3)methylpyridazine-3-carboxamide], the IC50 was determined as 0.03 µM.

As to `[2H]C([2H])([2H])NC(=O)c1nnc(Nc2ccc(N3CCN(C(C)(C)C)C3=O)cn2)cc1Nc1nccc(-c2ncn(C)n2)c1OC` [Example 37, 6-{[5-(3-tert-butyl-2-oxoimidazolidin-1-yl)pyridin-2-yl]amino}-4-{[3-methoxy-4-(1-methyl-1H-1,2,4-triazol-3-yl)pyridin-2-yl]amino}-N—(^2H3)methylpyridazine-3-carboxamide], the IC50 was found to be 0.13 µM.

Turning to `[2H]C([2H])([2H])NC(=O)c1nnc(Nc2ccc(N3CCOCC3)cn2)cc1Nc1nccc(-c2ncn(C)n2)c1OC` [Example 38, 4-{[3-methoxy-4-(1-methyl-1H-1,2,4-triazol-3-yl)pyridin-2-yl]amino}-N—(^2H3)methyl-6-{[5-(morpholin-4-yl)pyridin-2-yl]amino}pyridazine-3-carboxamide], the IC50 was 0.01 µM.

As for `[2H]C([2H])([2H])NC(=O)c1nnc(Nc2cc(F)c(F)cn2)cc1Nc1nccc(-c2ncn(C)n2)c1OC` [Example 39, 6-[(4,5-difluoropyridin-2-yl)amino]-4-{[3-methoxy-4-(1-methyl-1H-1,2,4-triazol-3-yl)pyridin-2-yl]amino}-N—(^2H3)methylpyridazine-3-carboxamide], the IC50 is 0.22 µM.

In the case of `[2H]C([2H])([2H])NC(=O)c1cnc(NC(=O)C2CC2)cc1Nc1nccc(-c2noc(C)n2)c1OC` [Example 41, 6-cyclopropaneamido-4-{[3-methoxy-4-(5-methyl-1,2,4-oxadiazol-3-yl)pyridin-2-yl]amino}-N—(^2H3)methylpyridine-3-carboxamide], the half-maximal inhibitory concentration (IC50) was 0.03 µM.

On to `[2H]C([2H])([2H])NC(=O)c1nnc(Nc2cc(C)ccn2)cc1Nc1nccc(-c2noc(CN3CCOCC3)n2)c1OC` [Example 42, 4-((3-methoxy-4-(5-(morpholinomethyl)-1,2,4-oxadiazol-3-yl)pyridin-2-yl)amino)-N-trideuteromethyl-6-((4-methylpyridin-2-yl)amino)pyridazine-3-carboxamide], for which the IC50 was determined as 0.58 µM.

As to `[2H]C([2H])([2H])NC(=O)c1cnc(NC(=O)CC)cc1Nc1nccc(-c2noc(C)n2)c1OC` [Example 43, 4-{[3-methoxy-4-(5-methyl-1,2,4-oxadiazol-3-yl)pyridin-2-yl]amino}-N—(^2H3)methy-6-propanamidopyridine-3-carboxamide], the IC50 was determined as 0.12 µM.

With `[2H]C([2H])([2H])NC(=O)c1cnc(NC(=O)CC2CC2)cc1Nc1nccc(-c2noc(C)n2)c1OC` [Example 44, 6-(2-cyclopropylacetamido)-4-{[3-methoxy-4-(5-methyl-1,2,4-oxadiazol-3-yl)pyridin-2-yl]amino}-N—(^2H3)methylpyridine-3-carboxamide], the IC50 was determined as 0.09 µM.

For the compound `[2H]C([2H])([2H])NC(=O)c1cnc(NC(=O)C2CC2)cc1Nc1nccc(-c2noc(COC)n2)c1OC` [Example 45, 6-cyclopropaneamido-4-({3-methoxy-4-[5-(methoxymethyl)-1,2,4-oxadiazol-3-yl]pyridin-2-yl}amino)-N—(^2H3)methylpyridine-3-carboxamide], the IC50 was 0.01 µM.

For the compound `[2H]C([2H])([2H])NC(=O)c1cnc(NC(=O)C2CC2)cc1Nc1nccc(-c2noc(COCC)n2)c1OC` [Example 46, 6-cyclopropaneamido-4-({4-[5-(ethoxymethyl)-1,2,4-oxadiazol-3-yl]-3-methoxypyridin-2-yl}amino)-N—(^2H3)methylpyridine-3-carboxamide], the IC50 came out at 0.03 µM.

As to `[2H]C([2H])([2H])NC(=O)c1cnc(NC(=O)C2CC2)cc1Nc1nccc(-c2noc(COC(C)C)n2)c1OC` [Example 47, 6-cyclopropaneamido-4-[(3-methoxy-4-{5-[(propan-2-yloxy)methyl]-1,2,4-oxadiazol-3-yl}pyridin-2-yl)amino]-N—(^2H3)methylpyridine-3-carboxamide], the IC50 is 0.02 µM.

Take `[2H]C([2H])([2H])NC(=O)c1cnc(NC(=O)CC)cc1Nc1nccc(-c2noc(COC)n2)c1OC` [Example 48, 4-({3-methoxy-4-[5-(methoxymethyl)-1,2,4-oxadiazol-3-yl]pyridin-2-yl}amino)-N—(^2H3)methyl-6-propanamidopyridine-3-carboxamide]: the IC50 was determined as 0.2 µM.
